Here are results for one molecule from patent US9962383B2, “Compounds, compositions and methods of agelastatin alkaloids” (Massachusetts Institute of Technology, priority 2013, dated 2018).

One data set concerns tubulin dynamics. As to the kind of experiment: Tubulin microscopy with HeLa cells. In kind it is cell-based, human. The following applies: 16 hours, confocal microscopy.
In a further data set the test system is blood cancer cells. As to the kind of experiment: Activity against human blood cancer cell lines. In kind it is cell-based. Here is the method:
Based on the surprising and exceptional potency of (−)-agelastatins A (1) and D (4) against U-937 cells relative to the other cell lines tested, five additional blood cancer cell lines were tested for their sensitivity to the agelastatin alkaloids. These cell lines spanned a variety of cancer types (CEM, acute lymphoblastic leukemia; Jurkat, acute T-cell leukemia; Daudi, Burkitt's lymphoma; HL-60, acute promyelocytic leukemia; CA46, Burkitt's lymphoma). After a 48-hour incubation, the ability of (−)-agelastatins A-F (1-6) to induce cell death was evaluated. […] The same trends in potency observed for the various agelastatins with the general cell panel (Table 3) were also observed.
In a 96-well plate, compounds were pre-added as DMSO stocks (1% final) in triplicate to achieve final concentrations of 1 nM to 10 μM on a half log scale. DMSO and cell-free wells served as the live and dead control, respectively. […] After 48 h, cell viability was assessed by adding 20 μL of a PMS/MTS solution (A. H. Cory, T. C. Owen, J. A. Barltrop, J. G. Cory, Cancer Commun., 1991, 3, 207) to each well, allowing the dye to develop at 37° C. until the live control had processed MTS, and reading the absorbance at λ=490 nm. IC50 values were determined from three or more independent experiments using TableCurve (San Jose, Calif.).

The next data set relates to Human Erythrocytes. As to the kind of experiment: Hemolysis assay using human erythrocytes. The following applies: hemolysis after 2 h. In kind it is cell-based. Here is the method: FIG. 1. Hemolytic activity of (−)-agelastatins A-F and advanced intermediates. Compounds were tested at 333 μM and hemolysis was evaluated after 2 h. DMSO and water served as the negative and positive controls for hemolysis, respectively. Error bars represent standard deviation of the mean, n=3.
To prepare the erythrocytes, 0.1 mL of human blood was centrifuged (10,000 g, 2 min). The pellet was washed three times with saline (0.9% NaCl) via gentle resuspension and centrifugation (10,000 g, 2 min). Following the final wash, the erythrocytes were resuspended in 0.4 mL red blood cell (RBC) buffer (10 mM Na2HPO4, 150 mM NaCl, 1 mM MgCl2, pH 7.4).
DMSO stocks of compounds were added to 0.5 mL tubes in singlicate (1 μL, 3.3% DMSO final). The stocks were diluted with 19 μL RBC buffer. Positive control tubes contained DMSO in water, and negative control tubes contained DMSO in RBC buffer. A suspension of washed erythrocytes (10 μL) was added to each tube, and samples were incubated at 37° C. for 2 hours. Samples were centrifuged (10,000 g, 2 min), and the supernatant was transferred to a clear, sterile 384-well plate. The absorbance of the supernatants was measured at λ=540 nm, and percent hemolysis was calculated relative to the average absorbance values measured for the controls.

In data set [1] the test system is procaspase-3 and PARP-1 cleavage. Kind of data set: Western blot analysis of procaspase-3 and PARP-1 cleavage in U-937 cells. To be noted: 24 hours. In kind it is cell-based, human. Here is the method: FIG. 2. […] Western blot analysis of procaspase-3 and PARP-1 cleavage at 24 hours in U-937 cells using β-actin as loading control. Compounds were tested at indicated concentrations and STS (10 nM); C3=caspase-3; PARP=poly(ADP-ribose) polymerase 1; PC3=procaspase-3; STS=staurosporine.

Experimental for tubulin dynamics: HeLa cells were treated with compound for 16 hours, fixed, stained, and visualized using confocal microscopy.
Round, 1.5 mm coverslips (No. 1.5) were sterilized with ultraviolet light and placed in a 12-well plate. HeLa cells (100,000 cells/well) were added and allowed to adhere for eight hours. Compounds were then added as DMSO stocks to achieve a final DMSO concentration of 1%, and the plates were returned to the incubator for 16 hours.
Following incubation, the media was removed, and the coverslips were fixed with 0.5 mL Microtubulin Stabilizing Buffer (MTSB, 80 mM PIPES, pH 6.8, 1 mM MgCl2, 5 mM EGTA, 0.5% TX-100)+0.5% glutaraldehyde for 10 minutes at room temperature, after which the fixative was removed and the sample was quenched with the addition of 0.5 mL of freshly-prepared 1 mg/mL NaBH4 in PBS. After a 5 min incubation, the solution was removed by aspiration and the coverslips were washed with PBS.
Coverslips were transferred to parafilm-lined culture dishes (cell-side up), and 40 μL of 50 μg/mL RNase A in Antibody Diluting Solution (AbDil, PBS, pH 7.4, 0.2% TX-100, 2% BSA, 0.1% NaN3) with 1:50 dilution of anti-α-tubulin-FITC antibody was added to all samples. The samples were allowed to incubate at room temperature in the dark for 2.5 hours, after which the coverslips were washed three times with PBS+0.1% TX-100. […]

For the molecule `CN1C(=O)N[C@H]2[C@@H]3NC(=O)c4ccc(Br)n4[C@@H]3C[C@]21O` [(−)-1, (−)-agelastatin A], the “effect on tubulin dynamics” value in the data set on tubulin dynamics is “do not affect tubulin dynamics”. In addition, the “sensitivity of five additional blood cancer cell lines, in words” value in the data set on blood cancer cells (CEM, Jurkat, Daudi, HL-60, CA46, 48-hour incubation) is “remarkable sensitivity”. In addition, in the data set with blood cancer cells (range over blood cancer cell lines, read-out: potency against blood cancer cells), the IC50 lay within 20 to 190 nM. The “nonspecific hemolysis of red blood cells” value in the data set on Human Erythrocytes (compounds at 333 μM) is on record as “none”. Also, in the data set with Human Erythrocytes, the “concentration without affecting normal red blood cells” value is over 333 µM. Besides, in data set [1], the “activation of procaspase-3 to active caspase-3 and cleavage of PARP-1” value is on record as “dose-dependent activation”.
